Literature values, collected in patent publication US9339478B2, “Pharmaceutical formulation” (RECKITT BENCKISER LLC, priority 2011, dated 2016).

Details: per dose, typical

With `COc1ccc2c3c1O[C@H]1[C@@H](O)C=C[C@H]4[C@@H](C2)N(C)CC[C@@]341` [codeine] as the molecule, how does the “period of therapeutic effect / relief provided by a dose” value read?
Its value is 2.5 to 3 h.
